# Data: ChEMBL document CHEMBL4888484, “Replenishing the malaria drug discovery pipeline: Screening and hit evaluation of the MMV Hit Generation Library 1 (HGL1) against asexual blood stage Plasmodium falciparum ,using a nano luciferase reporter read-out” (2022)
# Tests used:
# [1] = system: Plasmodium falciparum; experiment: Hit confirmation in dose-response curve in NF54 nanoGlo assay, at 72h; assay type: functional, organism-based, Erythrocyte; parameters: timepoint 72 hour
# [2] = Hit confirmation in dose-response curve in HepG2 cytotoxicity assay, at 72h; assay type: toxicity, cell-based; parameters: timepoint 72 hour; details: human, HepG2 cells
# [3] = system: Plasmodium falciparum; experiment: Hit confirmation in dose-response curve in Dd2 pLDH assay, at 72h; assay type: functional, organism-based; parameters: timepoint 72 hour; details: Dd2, Erythrocyte
# [4] = system: Plasmodium falciparum; experiment: Hit confirmation in dose-response curve in NF54 pLDH assay, at 72h; assay type: functional, organism-based; parameters: timepoint 72 hour; details: NF54, Erythrocyte
# [5] = system: Plasmodium falciparum; experiment: Hit confirmation in dose-response curve in NF54 nanoGlo assay, at 12h; assay type: functional, organism-based, Erythrocyte; parameters: timepoint 12 hour
# [6] = Re-testing in dose-response curve in HepG2 cytotoxicity assay, at 72h; assay type: toxicity, cell-based; parameters: timepoint 72 hour; details: human, HepG2 cells
# [7] = system: Plasmodium falciparum; experiment: Re-testing in dose-response curve in 3D7 pLDH assay, at 72h; assay type: functional, organism-based; parameters: timepoint 72 hour; details: 3D7, Erythrocyte
# [8] = Plasmodium falciparum, NF54, Erythrocyte, 72 h
# [9] = Plasmodium falciparum, NF54, Erythrocyte, 12 h
SMILES,"IC50 [1, 8]",IC50 [3],IC50 [4],"IC50 [5, 9]",IC50 [7],IC50 ([1]; erythrocyte),IC50 ([5]; erythrocyte),IC50 at 72 h [2],IC50 at 72 h [6]
CC(C)c1ccc2ncnc(N[C@H]3CCc4[nH]cnc4C3)c2c1,589 nM,589 nM,1000 nM,2400 nM,534 nM,,,> 10000 nM,> 25000 nM
CC1(C)OCc2cc(CNc3ccc4oc(=O)[nH]c4c3)ccc2O1,550 nM,661 nM,759 nM,851 nM,267 nM,,,> 10000 nM,20400 nM
Cc1ccnc(Nc2ccc(N3CCNCC3)nn2)c1,1620 nM,1700 nM,1290 nM,2820 nM,3000 nM,,,> 10000 nM,> 25000 nM
CCCCN(CC)CCNC(=O)C1CCN(C2=NS(=O)(=O)C(c3ccc(OC)cc3)=C2C)CC1,3020 nM,1320 nM,1200 nM,> 10000 nM,702 nM,,,> 10000 nM,> 25000 nM
c1cc(N2CC[C@@]3(CCCNC3)C2)c2sccc2n1,479 nM,398 nM,389 nM,617 nM,580 nM,,,> 10000 nM,> 14200 nM
Cc1ccc(O)c(CNCC2(c3ccccc3Cl)CCOCC2)n1,209 nM,437 nM,575 nM,316 nM,444 nM,,,> 10000 nM,> 25000 nM
O=C(CN1CCC[C@H]1C1CCCC1)NCC1CCCCC1,3800 nM,1660 nM,3020 nM,> 10000 nM,2070 nM,,,> 10000 nM,> 25000 nM
COc1ccc(F)cc1S(=O)(=O)N1CCc2noc(N)c2C1,158 nM,955 nM,912 nM,> 10000 nM,> 25000 nM,,,> 10000 nM,> 25000 nM
C[C@H]1CCN(c2nc(-c3ccccn3)nc3c2CCC3)C1,692 nM,1230 nM,1290 nM,2040 nM,2150 nM,,,> 10000 nM,4750 nM
COc1ccc([C@@H]2C=C(c3ccc(Cl)cc3)N=C3NC(NC(=O)c4ccccc4OC)=NN32)cc1,759 nM,1230 nM,2950 nM,1100 nM,6520 nM,,,> 10000 nM,> 25000 nM
Cc1ccc2c(c1)CCCN2C(=O)CN1CC=C(c2cnn(C)c2)CC1,3720 nM,1740 nM,3800 nM,> 10000 nM,777 nM,,,> 10000 nM,> 25000 nM
Cc1ccc(C)c(-n2cnc(=O)n2[C@H]2CCN(C3CC3)C2=O)c1,2950 nM,5750 nM,8320 nM,> 10000 nM,,,,> 10000 nM,
O=C(Cc1ccc(N(Cc2cccc(F)c2)C(=O)C2CCCC2)cc1)NCCN1CCCCC1,501 nM,724 nM,617 nM,> 10000 nM,,,,> 10000 nM,
CCN1CCN(C2CCN(c3ncc(F)c(OC)n3)CC2)CC1,2570 nM,> 10000 nM,3890 nM,> 10000 nM,,,,> 10000 nM,
C[C@H]1CCC[C@@H](NCCc2ccccc2)CCC/C=C/c2cc(O)cc(O)c2C(=O)O1,759 nM,2290 nM,2950 nM,8510 nM,,,,> 10000 nM,
Cc1ccc(NC(=O)N2CCCN(c3ccc(NC(=O)c4cccs4)cc3C(=O)NCc3ccc(F)cc3)CC2)cc1,3630 nM,> 10000 nM,7940 nM,6920 nM,,,,> 10000 nM,
O=C(N[C@@H](CN1CCCC1)c1ccccc1)N1CCC(c2ccn[nH]2)CC1,3800 nM,4900 nM,2240 nM,> 10000 nM,,,,> 10000 nM,
COc1ccc(CN2CC[C@@H]3C(=O)NCCCCCCN(Cc4ccncc4)[C@@H]3C2)cc1Cn1ccnc1,1100 nM,1170 nM,1150 nM,7080 nM,,,,> 10000 nM,
COc1cccc(-c2nc(C)c(C(=O)Nc3nc(C(C)C)n[nH]3)s2)c1,1480 nM,> 10000 nM,> 10000 nM,575 nM,,,,> 10000 nM,
CC(C)N1CCC2(CC1)N=C(c1ccc3c(c1)OCO3)C[C@@H](c1cc(Cl)ccc1O)N2,3800 nM,8320 nM,> 10000 nM,4270 nM,,,,> 10000 nM,
Cc1c(-c2nn(-c3nc(C4CC4)cc(C(F)(F)F)n3)c(-c3cnn(C)c3C)c2Cl)cnn1C,1100 nM,> 10000 nM,> 10000 nM,407 nM,,,,> 10000 nM,
COc1cccc(-c2nc(C)c(C(=O)Nc3n[nH]c(CC(C)C)n3)s2)c1,676 nM,> 10000 nM,> 10000 nM,794 nM,,1170 nM,631 nM,> 10000 nM,
C[N+]12CCCCC1C(OC(=O)C1(c3ccccc3)CCCC1)CCC2 (stereo not given),2040 nM,2040 nM,2820 nM,> 10000 nM,,,,> 10000 nM,

# More lines, main results first:
"IC50 [1, 8]",IC50 [3],IC50 [4],"IC50 [5, 9]",IC50 [7],IC50 ([1]; erythrocyte),IC50 ([5]; erythrocyte),SMILES,IC50 at 72 h [2],IC50 at 72 h [6]
1410 nM,1380 nM,1260 nM,3020 nM,1010 nM,,,Clc1ccc(COc2ccc(Cl)cc2CNCCCn2ccnc2)c(Cl)c1,> 10000 nM,6110 nM
1450 nM,1700 nM,1780 nM,4900 nM,15600 nM,,,COc1ccnc(CN2CCC[C@H](c3nc(-c4ccccc4)c[nH]3)C2)c1OC,> 10000 nM,10200 nM
1480 nM,1700 nM,1780 nM,> 10000 nM,1460 nM,,,Cc1nc(N)nc(C)c1C(=O)Nc1ccc(Nc2ncccn2)cc1,> 10000 nM,> 25000 nM
1550 nM,1550 nM,2820 nM,6460 nM,751 nM,,,COc1ccc(CC(=O)Nc2cc(C)n(-c3cccc(Cl)c3)n2)cc1,> 10000 nM,> 25000 nM
457 nM,741 nM,1170 nM,> 10000 nM,118 nM,,,COc1ccc(C(=O)N2c3ncnn3C(c3ccccc3)CC2c2ccc(C)cc2)cc1OC (stereo not given),> 10000 nM,> 25000 nM
468 nM,1450 nM,1410 nM,1260 nM,1710 nM,,,C[C@H]1CCCN(c2nc(-c3ccccn3)nc3ccccc23)C1,> 10000 nM,1760 nM
251 nM,955 nM,1100 nM,> 10000 nM,2110 nM,,,Nc1c(-c2nc3ccccc3[nH]2)c2nc3ccccc3nc2n1Cc1ccccc1F,> 10000 nM,24700 nM
741 nM,1170 nM,562 nM,1510 nM,~467 nM,,,Clc1ccc(Cn2cc(CNCCCn3ccnc3)c3ccccc32)c(Cl)c1,> 10000 nM,3900 nM
2340 nM,> 10000 nM,10000 nM,3240 nM,,,,Cc1ccc(S(=O)(=O)Nc2cc3nc4ccccc4nc3n2CCc2ccccc2)cc1,> 10000 nM,
2000 nM,1780 nM,3800 nM,8510 nM,,,,O[C@H]1CNCC[C@@H]1Nc1cc(-c2ccccc2)nc2ccccc12,> 10000 nM,
1100 nM,2880 nM,4170 nM,1660 nM,,,,CCCN1C(=O)c2ccccc2N2C(=O)CC[C@@]12C(=O)Nc1ccccc1,> 10000 nM,
1820 nM,3240 nM,5620 nM,4570 nM,,,,O=S(=O)(Nc1cccc2cccnc12)c1cccs1,10700 nM,
1230 nM,1000 nM,1350 nM,1740 nM,,,,CCN(CCN(C)C)C(=O)c1cccc(-c2ccc3nccc(N)c3c2)c1,> 10000 nM,
1290 nM,4270 nM,6170 nM,2690 nM,,,,COc1ccc(Nc2nnc(-c3ccc(NC(=O)C(=O)NCCCn4ccnc4)cc3)s2)cc1,> 10000 nM,
2880 nM,3240 nM,7080 nM,> 10000 nM,,,,CCCOc1ccc(Nc2cc(C)nc3ccc(Cl)cc23)cc1,> 10000 nM,
1510 nM,1780 nM,2570 nM,> 10000 nM,,,,Cc1cc[n+]2c(-c3ccccc3)cc(-c3ccccc3)nc2c1,> 10000 nM,
1660 nM,5500 nM,3720 nM,4570 nM,,,,Cc1cccc(CN2CCC[C@H](C(=O)c3ccc4c5c(cccc35)CC4)C2)n1,> 10000 nM,
> 10000 nM,> 10000 nM,> 10000 nM,1700 nM,,,,CCn1c(-c2cc(NC(=O)c3ccc4c(c3)OCO4)[nH]n2)cc2ccc(OC)cc21,> 10000 nM,
1410 nM,3160 nM,3980 nM,> 10000 nM,,,,COc1ccccc1Cn1cnc2c1c(=O)n(C1CCCCC1)c(=O)n2-c1ccccc1Cl,> 10000 nM,
1780 nM,1070 nM,2630 nM,10200 nM,,,,CNc1nc(NCc2ccccc2)nc2ccccc12,> 10000 nM,
263 nM,372 nM,513 nM,> 10000 nM,,,,CCc1ccc(/C=C/c2c[nH]c3ccccc23)[n+](CC)c1,> 10000 nM,
